Measurements: ChEMBL document CHEMBL1201861, “Genomics of Drug Sensitity in Cancer screening data, Wellcome Trust Sanger Institute”
Values joined by “and” are separate entries in the source; they are usually repeats but may differ in a detail not shown here. Equal values may be shown once.

How the values were obtained:
Experiment in all cases: cells
HGC-27 = format: functional, cell-based, Homo sapiens; conditions: hgc-27;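 further: growth inhibition of human HGC-27 cells, read out in a cell viability assay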
Description: SANGER: Inhibition of human HGC-27 cell growth in a cell viability assay.

HuTu80 = format: functional, cell-based, Homo sapiens, HUTU-80;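 further: growth inhibition of HuTu80 human cells, determined with a cell viability readout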
Description: SANGER: Inhibition of human HUTU-80 cell growth in a cell viability assay.

ML-2 = format: functional, cell-based; conditions: Homo sapiens;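 further: growth inhibition of ML-2 cells, measured with a cell viability readout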
Description: SANGER: Inhibition of human ML-2 cell growth in a cell viability assay.

CAKI-1 = format: functional, cell-based, Homo sapiens;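 further: growth inhibition of CAKI-1 cells, measured by a cell viability assay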
Description: SANGER: Inhibition of human CAKI-1 cell growth in a cell viability assay.

HOP-62 = format: functional, cell-based, Homo sapiens; conditions: hop-62;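 further: cell growth inhibition determined with a viability assay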
Description: SANGER: Inhibition of human HOP-62 cell growth in a cell viability assay.

A-427 = format: functional, cell-based, Homo sapiens; conditions: a-427;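 further: growth inhibition of human A-427 cells, read out by a cell viability assay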
Description: SANGER: Inhibition of human A427 cell growth in a cell viability assay.

HLE = format: functional, cell-based, Homo sapiens; conditions: hle;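 further: growth inhibition of human HLE cells, read out by a cell viability assay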
Description: SANGER: Inhibition of human HLE cell growth in a cell viability assay.

TGBC24TKB = format: functional, cell-based, Homo sapiens; conditions: tgbc24tkb;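 further: growth inhibition of human TGBC24TKB cells, read out with a cell viability assay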
Description: SANGER: Inhibition of human TGBC24TKB cell growth in a cell viability assay.

NCI-H661 = format: functional, cell-based, Homo sapiens; conditions: nci-h661;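 further: cell viability assay read-out, IC50 being the concentration that inhibits growth of the cells by half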
Description: SANGER: Inhibition of human NCI-H661 cell growth in a cell viability assay.

HCC1937 = format: functional, cell-based, Homo sapiens; conditions: hcc1937;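 further: growth inhibition measured with a cell viability read-out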
Description: SANGER: Inhibition of human HCC1937 cell growth in a cell viability assay.

LB373-MEL-D = format: functional, cell-based, Homo sapiens; conditions: lb373-mel-d;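 further: growth inhibition of the cell line, read out in a cell viability assay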
Description: SANGER: Inhibition of human LB373-MEL-D cell growth in a cell viability assay.

NB17 = format: functional, cell-based; conditions: Homo sapiens;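 further: growth inhibition of NB17 cells, read out with a cell viability assay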
Description: SANGER: Inhibition of human NB17 cell growth in a cell viability assay.

KMOE-2 = format: functional, cell-based; conditions: Homo sapiens;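 further: growth inhibition of human KMOE-2 cells, read out with a cell viability assay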
Description: SANGER: Inhibition of human KMOE-2 cell growth in a cell viability assay.

NCI-H1770 = format: functional, cell-based; conditions: Homo sapiens;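 further: growth inhibition of NCI-H1770 cells determined with a viability readout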
Description: SANGER: Inhibition of human NCI-H1770 cell growth in a cell viability assay.

PSN1 = format: functional, cell-based, Homo sapiens; conditions: psn1;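 further: suppression of growth of human PSN1 cells, read out by a cell viability assay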
Description: SANGER: Inhibition of human PSN1 cell growth in a cell viability assay.

EW-1 = format: functional, cell-based, Homo sapiens; conditions: ew-1
Description: SANGER: Inhibition of human EW-1 cell growth in a cell viability assay.

NCI-H1993 = format: functional, cell-based, Homo sapiens; conditions: nci-h1993;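 further: growth inhibition of the cancer cell line, assessed with a cell viability assay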
Description: SANGER: Inhibition of human NCI-H1993 cell growth in a cell viability assay.

PC-14 = format: functional, cell-based, Homo sapiens; conditions: pc-14;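 further: cell viability assay measuring inhibition of PC-14 cell growth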
Description: SANGER: Inhibition of human PC-14 cell growth in a cell viability assay.

NB14 = format: functional, cell-based; conditions: Homo sapiens;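 further: growth inhibition of NB14 cells measured with a cell viability assay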
Description: SANGER: Inhibition of human NB14 cell growth in a cell viability assay.

P12-Ichikawa = format: functional, cell-based; conditions: Homo sapiens
COLO-320-HSR = format: functional, cell-based; conditions: Homo sapiens;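 further: growth inhibition of COLO-320-HSR cells, determined with a cell viability assay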
Description: SANGER: Inhibition of human COLO-320-HSR cell growth in a cell viability assay.

ES1 = format: functional, cell-based, Homo sapiens; conditions: es1;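 further: growth inhibition of ES1 cells, read out with a cell viability assay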
Description: SANGER: Inhibition of human ES1 cell growth in a cell viability assay.

EFO-27 = format: functional, cell-based, Homo sapiens;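 further: growth inhibition of EFO-27 cells, read out with a cell viability assay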
Description: SANGER: Inhibition of human EFO-27 cell growth in a cell viability assay.

HCC2218 = format: functional, cell-based; conditions: Homo sapiens;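 further: cell viability assay read-out, with IC50 given as the concentration that inhibits growth of the cell line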
Description: SANGER: Inhibition of human HCC2218 cell growth in a cell viability assay.

NCI-H1395 = format: functional, cell-based, Homo sapiens; conditions: nci-h1395;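 further: cell viability assay read-out quantifying reduced proliferation of human NCI-H1395 cells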
Description: SANGER: Inhibition of human NCI-H1395 cell growth in a cell viability assay.

TE-9 = format: functional, cell-based, Homo sapiens; conditions: te-9;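 further: cell growth inhibition, measured with a cell viability readout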
Description: SANGER: Inhibition of human TE-9 cell growth in a cell viability assay.

DSH1 = format: functional, cell-based, Homo sapiens;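 further: growth inhibition of human DSH1 cells, measured with a cell viability readout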
Description: SANGER: Inhibition of human DSH1 cell growth in a cell viability assay.

Lu-65 = format: functional, cell-based; conditions: Homo sapiens;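 further: growth inhibition of Lu-65 cancer cells, read out by a cell viability assay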
Description: SANGER: Inhibition of human LU-65 cell growth in a cell viability assay.

KU-19-19 = format: functional, cell-based, Homo sapiens; conditions: ku-19-19
Description: SANGER: Inhibition of human KU-19-19 cell growth in a cell viability assay.

SNU1 = format: functional, cell-based; conditions: Homo sapiens;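 further: growth inhibition of human NCI-SNU-1 cells, measured with a cell viability assay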
Description: SANGER: Inhibition of human NCI-SNU-1 cell growth in a cell viability assay.

NEC8 = format: functional, cell-based, Homo sapiens; conditions: nec8;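 further: growth inhibition of human NEC8 cells, read out by a cell viability assay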
Description: SANGER: Inhibition of human NEC8 cell growth in a cell viability assay.

EW-11 = format: functional, cell-based, Homo sapiens; conditions: ew-11;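 further: growth inhibition of human EW-11 cells, measured with a cell viability assay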
Description: SANGER: Inhibition of human EW-11 cell growth in a cell viability assay.

SAS = format: functional, cell-based, Homo sapiens; conditions: sas;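 further: growth inhibition of SAS cells, read out with a cell viability assay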
Description: SANGER: Inhibition of human SAS cell growth in a cell viability assay.

KY821 = format: functional, cell-based; conditions: Homo sapiens;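 further: growth inhibition of human KY821 cells, read out by a cell viability assay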
Description: SANGER: Inhibition of human KY821 cell growth in a cell viability assay.

EOL1 = format: functional, cell-based; conditions: Homo sapiens;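 further: growth inhibition of EoL-1 cells, read out by a cell viability assay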
Description: SANGER: Inhibition of human EoL-1-cell cell growth in a cell viability assay.

SW 962 = format: functional, cell-based, Homo sapiens; conditions: sw 962;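 further: growth inhibition of human SW962 cells, read out by a cell viability assay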
Description: SANGER: Inhibition of human SW962 cell growth in a cell viability assay.

SK-MEL-1 = format: functional, cell-based; conditions: Homo sapiens;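 further: growth inhibition of human SK-MEL-1 cells, read out by a cell viability assay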
Description: SANGER: Inhibition of human SK-MEL-1 cell growth in a cell viability assay.

PA-1 = format: functional, cell-based, Homo sapiens; conditions: pa-1;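 further: IC50 for suppression of PA-1 cell proliferation, determined with a cell viability read-out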
Description: SANGER: Inhibition of human PA-1 cell growth in a cell viability assay.

LS-1034 = format: functional, cell-based, Homo sapiens
Description: SANGER: Inhibition of human LS-1034 cell growth in a cell viability assay.

CGTH-W-1 = format: functional, cell-based, Homo sapiens; conditions: cgth-w-1;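 further: growth inhibition of human CGTH-W-1 cells measured by cell viability assay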
Description: SANGER: Inhibition of human CGTH-W-1 cell growth in a cell viability assay.

OVCAR-8 = format: functional, cell-based, Homo sapiens; conditions: ovcar-8;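 further: growth inhibition of human OVCAR-8 cells, read out by a cell viability assay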
Description: SANGER: Inhibition of human OVCAR-8 cell growth in a cell viability assay.

786-0 = format: functional, cell-based, Homo sapiens
Description: SANGER: Inhibition of human 786-0 cell growth in a cell viability assay.

SW1463 = format: functional, cell-based, Homo sapiens; conditions: sw1463;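 further: growth inhibition of SW1463 cells, determined with a cell viability assay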
Description: SANGER: Inhibition of human SW1463 cell growth in a cell viability assay.

LK-2 = format: functional, cell-based, Homo sapiens; conditions: lk-2;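 further: growth inhibition of LK-2 cells, read out with a viability assay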
Description: SANGER: Inhibition of human LK-2 cell growth in a cell viability assay.

5637 = format: functional, cell-based, Homo sapiens
Description: SANGER: Inhibition of human 5637 cell growth in a cell viability assay.

RMG-I = format: functional, cell-based, Homo sapiens; conditions: rmg-i;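 further: growth inhibition of human RMG-I cells, read out with a cell viability assay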
Description: SANGER: Inhibition of human RMG-I cell growth in a cell viability assay.

SiHa = format: functional, cell-based, Homo sapiens;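 further: Viability-based readout of growth inhibition in SiHa cells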
Description: SANGER: Inhibition of human SiHa cell growth in a cell viability assay.

MFH-ino = format: functional, cell-based; conditions: Homo sapiens;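 further: growth inhibition of human MFH-ino cells, read out by a cell viability assay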
Description: SANGER: Inhibition of human MFH-ino cell growth in a cell viability assay.

CHL-1 = format: functional, cell-based, Homo sapiens;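 further: cell growth inhibition, read out with a cell viability assay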
Description: SANGER: Inhibition of human CHL-1 cell growth in a cell viability assay.

NCI-H446 = format: functional, cell-based; conditions: Homo sapiens;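 further: growth inhibition of NCI-H446 cells determined by a cell viability assay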
Description: SANGER: Inhibition of human NCI-H446 cell growth in a cell viability assay.

EGI-1 = format: functional, cell-based, Homo sapiens; conditions: egi-1;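 further: cell viability readout used to gauge growth inhibition of EGI-1 cells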
Description: SANGER: Inhibition of human EGI-1 cell growth in a cell viability assay.

MC-IXC = format: functional, cell-based, Homo sapiens;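 further: growth inhibition of MC-IXC cells, read out with a cell viability assay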
Description: SANGER: Inhibition of human MC-IXC cell growth in a cell viability assay.

For `Cc1cc([C@@H](C)Nc2ccccc2C(=O)O)c2nc(N3CCOCC3)cc(=O)n2c1` [AZD-6482], the IC50 (HGC-27) was 1.18 µM and > 5.12 µM, the IC50 (HuTu80; Homo sapiens, HuTu80) was over 5.12 µM and the IC50 (HuTu80; hutu-80) was over 5.12 µM. The IC50 (ML-2) was 3.56 µM, the IC50 (CAKI-1; Homo sapiens, CAKI-1) was 3.17 µM and the IC50 (CAKI-1; caki-1) was 4.71 µM. The IC50 (HOP-62) was over 5.12 µM, the IC50 (A-427) was 0.995 µM and > 5.12 µM and the IC50 (HLE) was over 5.12 µM. The IC50 (TGBC24TKB) was over 5.12 µM, the IC50 (NCI-H661) was over 5.12 µM and the IC50 (HCC1937) was over 5.12 µM. It also gave an IC50 (LB373-MEL-D) of over 5.12 µM, an IC50 (NB17) of over 5.12 µM and an IC50 (KMOE-2) of over 5.12 µM. For the same compound, the IC50 (NCI-H1770) was over 5.12 µM, the IC50 (PSN1) was over 5.12 µM and the IC50 (EW-1) was over 5.12 µM. It also gave an IC50 (NCI-H1993) of over 5.12 µM, an IC50 (PC-14) of over 5.12 µM and an IC50 (NB14) of over 5.12 µM. It also gave an IC50 (P12-Ichikawa) of over 5.12 µM, an IC50 (COLO-320-HSR) of over 5.12 µM and an IC50 (ES1) of over 5.12 µM. The IC50 (EFO-27; Homo sapiens, EFO-27) was over 5.12 µM, the IC50 (EFO-27; efo-27) was over 5.12 µM and the IC50 (HCC2218) was over 5.12 µM. It also gave an IC50 (NCI-H1395) of over 5.12 µM, an IC50 (TE-9) of over 5.12 µM and an IC50 (DSH1; Homo sapiens, DSH1) of over 5.12 µM. For the same compound, the IC50 (DSH1; dsh1) was over 5.12 µM, the IC50 (Lu-65) was over 5.12 µM and the IC50 (KU-19-19) was over 5.12 µM. For the same compound, the IC50 (SNU1) was over 5.12 µM, the IC50 (NEC8) was > 5.12 µM and 3.81 µM and the IC50 (EW-11) was over 5.12 µM. The IC50 (SAS) was over 5.12 µM, the IC50 (KY821) was over 5.12 µM and the IC50 (EOL1) was over 5.12 µM. For the same compound, the IC50 (SW 962) was > 5.12 µM and 1.5 µM, the IC50 (SK-MEL-1) was over 5.12 µM and the IC50 (PA-1) was > 5.12 µM and 2.43 µM. The IC50 (LS-1034; Homo sapiens, LS-1034) was over 5.12 µM, the IC50 (LS-1034; ls-1034) was over 5.12 µM and the IC50 (CGTH-W-1) was over 5.12 µM. The IC50 (OVCAR-8) was over 5.12 µM, the IC50 (786-0) was 1.99 µM and the IC50 (786-0; Homo sapiens) was 1.31 µM. The IC50 (SW1463) was over 5.12 µM, the IC50 (LK-2) was over 5.12 µM and the IC50 5637 was over 5.12 µM. For the same compound, the IC50 (5637; Homo sapiens) was over 5.12 µM, the IC50 (RMG-I) was over 5.12 µM and the IC50 (SiHa; Homo sapiens, SiHa) was over 5.12 µM. For the same compound, the IC50 (SiHa; siha) was over 5.12 µM, the IC50 (MFH-ino) was over 5.12 µM and the IC50 (CHL-1; Homo sapiens, CHL-1) was over 5.12 µM. For the same compound, the IC50 (CHL-1; chl-1) was 4.72 µM, the IC50 (NCI-H446) was over 5.12 µM and the IC50 (EGI-1) was over 5.12 µM. For the same compound, the IC50 (MC-IXC; Homo sapiens, MC-IXC) was over 5.12 µM and the IC50 (MC-IXC; mc-ixc) was over 5.12 µM.
